# Laboratory results taken from article PMC5974403, “The novel histone de acetylase 6 inhibitor, MPT0G211, ameliorates tau phosphorylation and cognitive deficits in an Alzheimer’s disease model” (Cell Death & Disease, 2018).
# Peptide text beside a SMILES is read from it. * marks the point of attachment. Cbz = O=C(OCc1ccccc1)*
# What was measured:
# [1] = tested on: SH-SY5Y cells; experiment: Western blot of acetyl-α-tubulin and acetyl-histone, SH-SY5Y cells; type: cell-based, human; conditions: 0.1 to 1 μM, 24 h
# Description: (§1) Cell viabilities were determined by MTT assay. The results represent the mean ± SEM of three independent experiments; *p < 0.05, **p < 0.01 and ***p < 0.001 compared with controls TEXT PRINTED IN THE PICTURE: (A) no label printed: M.W. 293.32
# (§2) Cells (1 × 10^6) were incubated for 10 min at 4 °C in lysis buffer (20 mM HEPES, pH 7.4, 2 mM EGTA, 50 mM β-glycerophosphate, 0.1% Triton X-100, 10% glycerol, 1 mM dithiothreitol, 1 μg/mL leupeptin, 5 μg/mL aprotinin, 1 mM phenylmethylsulfonyl fluoride, and 1 mM sodium orthovanadate), scraped from the plate, incubated on ice for 10 min, and centrifuged at 17,000 × g for 30 min at 4 °C. Protein samples (30 μg) were electrophoresed through sodium dodecyl sulfate-polyacrylamide gels (SDS-PAGE) and transferred onto a nitrocellulose membrane, which was then blocked by incubation for 30 min at room temperature with 5% fat-free milk in PBS. Immunoblotting was performed by overnight incubation at 4 °C with primary antibodies in PBS, followed by incubation for 1 h at room temperature with HRP-conjugated secondary antibodies. Bound antibodies were measured using ECL reagent (T-Pro Biotechnology, New Taipei City, Taiwan), and the membrane was placed on a photographic film. Cell lysates (30 μg) were incubated with antibodies (1 μg each) and protein A/G agarose beads overnight at 4 °C. The precipitated beads were washed three times with 1 mL of ice-cold cell lysis buffer, and bound immune complexes were separated using 8% SDS-PAGE, followed by immunoblotting using the indicated primary antibody.
# [2] = tested on: SH-SY5Y cells; experiment: Flow cytometry of sub-G1 (PI) and annexin V/PI in transfected SH-SY5Y cells; type: cell-based, human; conditions: hAPP + hTauP301L transfected SH-SY5Y, 0.1 μM, 24 h
# Description: The fractionation scheme used to separate different cellular pools of tau, and the western blot analysis of the effects of the compounds on tau pools generated using the fractionation scheme are presented. b, d SH-SY5Y cells were transfected for 24 h with pCAX APP 695 and pRK5-EGFP-Tau P301L, incubated with or without MPT0G211 or ACY-1215 (0.1 μM) for another 24 h, and then the cells were fixed and stained by propidium iodide (b) or annexin V/PI double staining (d) and analyzed by flow cytometry. c, e Percentages of the subG1 phase (c) or annexin V-positive cells (e) in response to drug treatment as explained in (b). Results are presented as the mean ± SEM. *p < 0.05 and **p < 0.01 compared with the control group; ^#p < 0.05 and ^##p < 0.01 compared with the indicated groups TEXT PRINTED IN THE PICTURE: (B) MPT0G211: hAPP + hTauP301L: SubG1 10.91% | (B) ACY-1215: hAPP + hTauP301L: SubG1 15.40% | (D) MPT0G211: hAPP + hTauP301L: 9.56%; hAPP + hTauP301L: 11.26% | (D) ACY-1215: hAPP + hTauP301L: 9.28%; hAPP + hTauP301L: 11.25%
# After drug treatment, the cells were collected, washed with cold phosphate-buffered saline (PBS), and fixed with 75% alcohol overnight at −20 °C. After centrifugation, the fixed cells were washed with cold PBS and resuspended in DNA extraction buffer (0.2 M Na2HPO4, 0.1 M citric acid, pH 7.8) for 30 min. The cells were centrifuged and incubated with propidium iodide (PI) (0.1% Triton X-100, 100 μg/mL RNase A, and 80 μg/mL PI in PBS) for 30 min. The cell cycle was analyzed using a FACScan Flow cytometer and Cell Quest software (Becton Dickinson, Mountain View, CA, USA).
# [3] = tested on: Neuro-2a cells; experiment: Western blot of acetyl-α-tubulin and acetyl-histone, Neuro-2a cells; type: cell-based, mouse; conditions: 0.1 to 1 μM, 24 h
# Description: as §1, §2
# [4] = tested on: SH-SY5Y cells; experiment: Western blot of tau phosphorylation and kinases in SH-SY5Y cells transfected with pCAX APP 695 and pRK5-EGFP-Tau P301L; type: cell-based, human; conditions: SH-SY5Y transfected, MG132 1 μM 30 min before MPT0G211 0.1 μM 24 h
# Description: (§3) Images represented magnification at ×100. b Cells were transfected with pCAX APP 695 for 24 h, harvested, and cell lysates were subjected to Western blotting. c, d SH-SY5Y and Neuro-2a cells were transfected with pCAX APP 695 and/or pRK5-EGFP-Tau P301L for 24 h. Cell lysates were prepared for western blot analysis of the indicated proteins. e, f Cells were transfected with pCAX APP 695 and pRK5-EGFP-Tau P301L for 24 h and were then incubated with or without MPT0G211 or ACY-1215 (0.1 μM) for another 24 h. Cell lysates were subjected to western blot analysis using the indicated antibodies. Results are presented as the mean ± SEM from three independent experiments. **p < 0.01, ***p < 0.001 compared with the control group; ^#p < 0.05, ^##p < 0.01 compared with the indicated groups
# (§4) Cell lysates were prepared for western blot analysis of the indicated proteins. Results are presented as the mean ± SEM. *p < 0.05, **p < 0.01, and ***p < 0.001 compared with the control group; ^#p < 0.05, ^##p < 0.01, ^###p < 0.001 compared with the indicated groups
# (§5) Cells were seeded 1 day before transfection. The plasmids pCAX FLAG APP and pRK5-EGFP-Tau P301L (1 μg each) and 1 μL of TurboFect transfection reagent were mixed for 20 min at room temperature, added to the cells, and the suspensions were incubated for 24 h at 37 °C in a humidified atmosphere containing 5% CO2.
# as §2
# [5] = tested on: Neuro-2a cells; experiment: Western blot of tau phosphorylation and kinases in Neuro-2a cells transfected with pCAX APP 695 and pRK5-EGFP-Tau P301L; type: cell-based, mouse; conditions: Neuro-2a transfected, MG132 1 μM 30 min before MPT0G211 0.1 μM 24 h
# Description: as §3, §4, §5, §2
# [6] = Fig. 3d picture, quadrant not identified
SMILES,acetylation of α-tubulin [1],"SubG1 population ([2]; PI staining, Fig. 3b picture)","annexin V/PI double staining, quadrant percentage [2, 6]","annexin V/PI double staining, quadrant percentage (first value) [2, 6]",acetylation of α-tubulin [3],effect on MPT0G211-induced inhibition of p-tau at Ser396 [4],effect on MPT0G211-induced inhibition of p-tau at Ser396 [5],acetylation of histones [1],acetylation of histones [3]
"O=C(CCCCCCNC(=O)c1cnc(N(c2ccccc2)c2ccccc2)nc1)NO [ACY-1215, reference compound]",less acetylation of α-tubulin,15.40%,11.25%,9.28%,less acetylation of α-tubulin,–,–,–,–
"CC(C)C[C@@H](C=O)NC(=O)[C@H](CC(C)C)NC(=O)[C@H](CC(C)C)NC(=O)OCc1ccccc1 [MG132, reference compound] (Cbz-Leu-Leu-Leu-aldehyde)",–,–,–,–,–,significantly reversed,significantly reversed,–,–
O=C(CCCCCCC(=O)Nc1ccccc1)NO [SAHA],significantly increased,–,–,–,significantly increased,–,–,significantly increased,significantly increased
